{"source": "patent US7482340B2", "about": "“Pyridine derivatives useful for inhibiting sodium/calcium exchange system” (Orion Corporation, priority 2003, dated 2009)", "test_system": "guinea-pig papillary muscles", "test": "Inhibition of ouabain-induced arrhythmias (aftercontractions) in guinea-pig papillary muscles", "conditions": "10 μM concentration; guinea-pig papillary muscle paced at 1 Hz, 37° C.", "description": "The effects of the compounds of the invention were tested on ouabain-induced arrhythmias in guinea-pig papillary muscles.\nGuinea-pig papillary muscles were mounted into horizontal muscle cuvette. A hook connected to force transducer was attached to another end of the muscle. Muscle preparations were electrically paced at 1 Hz with field stimulation via platinum electrodes. Modified Tyrode solution was used for superfusion of muscle preparations. The composition of the Tyrode solution was the following (mM): NaCl 135, MgCl2×6H2O 1, KCl 5, CaCl2×2H2O 2, NaHCO3 15, Na2HPO4×2H2O 1, and glucose 10. The Tyrode solution was gassed with carbogen (95% O2, 5% CO2) to set pH at 7.4. Experiments were carried out at 37° C. Acquisition and analysis of twitch tensions with Action Potential and Force Measurement System (ACFO v1.0, Fision Ltd, Finland).\nOuabain by blocking of sodium-potassium ATPase increases intracellular sodium which is changed for calcium via NCX. Increased intracellular calcium is leading to overload of sarcoplasmic reticulum (SR) and spontaneous calcium release from SR inducing delayed […] (DADs). Equivalence for DADs in force signal is aftercontractions (ACs) which are seen as spontaneous twitches after the pacing controlled twitch.\nThe antiarrhythmic effects of the title compounds of Examples 13, 33, 14a and 14b were examined."}
{"compound": "NCC(=O)Nc1ccc(Oc2ccc3c(c2)CCC(c2ccccc2)O3)nc1", "note": "(stereo not shown) [Example 33, 2-Amino-N-[6-(2-phenylchroman-6-yloxy)pyridin-3-yl]acetamide]", "values": [{"measurement": "inhibition of the emergency of ouabain-induced second aftercontraction", "result": "inhibit completely"}]}
